Patent US20120028888A1, “APJ RECEPTOR COMPOUNDS” (priority 2008, published 2012)
Non-standard residues stand in square brackets, D forms with d. Residues, ends and D or L forms follow the SMILES beside them. ξ: configuration not given here. *: point of attachment. Palmitoyl = CCCCCCCCCCCCCCCC(=O)*; ξR = N=C(N)NCCCC(N)C(=O)O

biological target: T1, Gi-coupled receptor APJ (HEK cells stably expressing the APJ receptor) (Homo sapiens, UniProt P35414); test: HTRF cAMP assay: inhibition of NKH477 stimulated increase in cAMP; format: cell-based; conditions: read-out: EC50 value (nM), SEM
T1 construct: expressed in transfected cells; host or cells: HEK cells stably expressing APJ
T1 sequence (P35414 1-380): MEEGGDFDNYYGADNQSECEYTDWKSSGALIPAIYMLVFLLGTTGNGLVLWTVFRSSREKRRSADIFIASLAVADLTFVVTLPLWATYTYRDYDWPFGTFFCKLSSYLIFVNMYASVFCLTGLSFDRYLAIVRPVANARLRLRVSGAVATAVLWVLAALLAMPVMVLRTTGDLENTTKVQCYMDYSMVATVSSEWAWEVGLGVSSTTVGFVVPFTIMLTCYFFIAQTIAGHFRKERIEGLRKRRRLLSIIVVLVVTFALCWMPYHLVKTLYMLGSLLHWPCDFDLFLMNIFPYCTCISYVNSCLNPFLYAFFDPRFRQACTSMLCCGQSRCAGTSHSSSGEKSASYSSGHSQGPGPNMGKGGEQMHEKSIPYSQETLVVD
Description: HTRF (homogeneous time resolved fluorescence) is a technology developed by Cisbio Bioassays based on TR-FRET (time-resolved fluorescence resonance energy transfer). Cisbio Bioassays has developed a wide selection of HTRF-based assays compatible with whole cells, thereby enabling functional assays to run under more physiological conditions. The IP-One assays are competitive immunoassays using cryptate-labeled anti-IPI monoclonal antibody and d2-labeled IP1. IP1 is a relatively stable downstream metabolite of IP3, and accumulates in cells following Gq receptor activation.
cAMP kits based on a competitive immunoassay using cryptate-labeled anti-cAMP antibody and d2-labeled cAMP were used to assay the effects of APJ compounds of the present invention. This assay measures the increase in intracellular cAMP upon Gs-coupled receptor activation as well as decrease in forskolin (or a more soluble version of forskolin—NKH477) stimulated increase in cAMP upon Gi-coupled receptor activation.

EC50 [nM] | Compound
501 to 1000 | CCCCCCCCCCCCCCCC(=O)N[C@H](C(=O)N[C@H](C(=O)N[C@@H](Cc1ccccc1)C(=O)N[C@@H](CCCNC(=N)N)C(=O)N[C@@H](CO)C(=O)N[C@@H](CO)C(=O)N[C@@H](CCCNC(=N)N)C(=O)N[C@@H](CCC(=O)O)C(=O)N[C@@H](CCCCN)C(=O)N[C@@H](CCCNC(=N)N)C(=O)N[C@@H](CCCNC(=N)N)C(=O)N[C@@H](CO)C(=O)N[C@@H](C)C(=O)N[C@@H](CC(=O)O)C(=O)N[C@H](C(=O)N[C@@H](Cc1ccccc1)C(=O)N[C@@H](C)C(N)=O)[C@@H](C)CC)C(C)C)[C@@H](C)O [Compound 40] (Palmitoyl-TVFRSSREKRRSADIFA-NH2)
> 10000 | CCCCCCCCCCCCCCCC(=O)N[C@H](C(=O)N[C@@H](CCCNC(=N)N)C(=O)N1CCC[C@H]1C(=O)N[C@H](C(=O)N[C@@H](C)C(=O)N[C@@H](CC(N)=O)C(=O)N[C@@H](C)C(=O)N[C@@H](CCCNC(=N)N)C(=O)N[C@@H](CC(C)C)C(N)=O)C(C)C)C(C)C [Compound 81] (Palmitoyl-VRPVANARL-NH2)
> 10000 | CCCCCCCCCCCCCCCC(=O)N[C@H](C(=O)N[C@@H](CCCNC(=N)N)C(=O)N1CCC[C@H]1C(=O)N[C@H](C(=O)N[C@@H](C)C(=O)N[C@@H](CC(N)=O)C(=O)N[C@@H](C)C(=O)N[C@@H](CCCNC(=N)N)C(=O)N[C@@H](CC(C)C)C(=O)NC(CCCNC(=N)N)C(=O)N[C@@H](CC(C)C)C(N)=O)C(C)C)C(C)C (stereo partly drawn) [Compound 84] (Palmitoyl-VRPVANARL[ξR]L-NH2)
1 to 500 | CCCCCCCCCCCCCCCC(=O)N[C@H](C(=O)N[C@H](C(=O)N[C@@H](Cc1ccccc1)C(=O)N[C@@H](CCCNC(=N)N)C(=O)N[C@@H](CO)C(=O)N[C@@H](CO)C(=O)N[C@@H](CCCNC(=N)N)C(=O)N[C@@H](C)C(=O)N[C@@H](CCCCN)C(=O)N[C@@H](CCCNC(=N)N)C(=O)N[C@@H](CCCNC(=N)N)C(=O)N[C@@H](CO)C(=O)N[C@@H](C)C(=O)N[C@@H](CC(=O)O)C(=O)N[C@H](C(=O)N[C@@H](Cc1ccccc1)C(=O)N[C@H](C(N)=O)[C@@H](C)CC)[C@@H](C)CC)C(C)C)[C@@H](C)O [Compound 41] (Palmitoyl-TVFRSSRAKRRSADIFI-NH2)
1000 to 5000 | CCCCCCCCCCCCCCCC(=O)N[C@H](C(=O)N[C@H](C(=O)N[C@@H](Cc1ccccc1)C(=O)N[C@@H](CCCNC(=N)N)C(=O)N[C@@H](CO)C(=O)N[C@@H](CO)C(=O)N[C@@H](CCCNC(=N)N)C(=O)N[C@@H](CCC(=O)O)C(=O)N[C@@H](CCCCN)C(=O)N[C@@H](CCCNC(=N)N)C(=O)N[C@@H](CCCNC(=N)N)C(=O)N[C@@H](CO)C(=O)N[C@@H](C)C(=O)N[C@@H](CC(=O)O)C(=O)N[C@H](C(=O)N[C@@H](Cc1ccccc1)C(=O)N[C@H](C(=O)O)[C@@H](C)CC)[C@@H](C)CC)C(C)C)[C@@H](C)O [Compound 42] (Palmitoyl-TVFRSSREKRRSADIFI-OH)
> 10000 | CCCCCCCCCCCCCCCC(=O)N[C@@H](CO)C(=O)N[C@@H](CO)C(=O)N[C@@H](CCCNC(=N)N)C(=O)N[C@@H](CCC(=O)O)C(=O)N[C@@H](CCCCN)C(=O)N[C@@H](CCCNC(=N)N)C(=O)N[C@@H](CCCNC(=N)N)C(=O)N[C@@H](CO)C(=O)N[C@@H](C)C(=O)N[C@@H](CC(=O)O)C(=O)N[C@H](C(=O)N[C@@H](Cc1ccccc1)C(=O)N[C@H](C(=O)N[C@@H](C)C(N)=O)[C@@H](C)CC)[C@@H](C)CC [Compound 33] (Palmitoyl-SSREKRRSADIFIA-NH2)
> 10000 | CCCCCCCCCCCCCCCC(=O)N[C@H](C(=O)N[C@@H](CCCNC(=N)N)C(=O)N1CCC[C@H]1C(=O)N[C@H](C(=O)N[C@@H](C)C(=O)N[C@@H](CC(N)=O)C(=O)N[C@@H](C)C(=O)N[C@@H](CCCNC(=N)N)C(=O)N[C@@H](CC(C)C)C(=O)N[C@@H](CCCNC(=N)N)C(=O)N[C@@H](CC(C)C)C(=O)N[C@@H](CCCNC(=N)N)C(N)=O)C(C)C)C(C)C [Compound 83] (Palmitoyl-VRPVANARLRLR-NH2)
